The values below come from patent publication US8148391B2 (Cephalon, Inc., priority 2006, dated 2012).

Assay [1] concerns the target T1, baculovirus-expressed ALK (Homo sapiens, UniProt Q9UM73).
T1 construct: host or cells: baculovirus expression system
The assay is described as follows: ALK Kinase Assay (ELISA-type, time-resolved fluorescence). In kind it is biochemical. Particulars: ALK kinase inhibition, 1 μM ATP; read-out: ALK Activity. The procedure, abridged: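 Substrate coating: phospholipase C-γ, 10 μg/mL in TBS. Kinase step: 30 ng/ml ALK, 15 min, 37° C. Detection and analysis: Eu-N1 PT66 antibody, with IC50 fitted as a sigmoidal variable-slope dose-response curve.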

The target in assay [2] is T2, c-Met (cytoplasmic domain) (Homo sapiens, UniProt P08581).
T2 construct: 10 ng/mL c-Met (cytoplasmic domain, Invitrogen Corporation #PV3143); purchased Invitrogen Corporation PV3143
The assay is described as follows: c-Met Kinase Assay (same methods as for ALK, with modifications). In kind it is biochemical. Particulars: c-Met kinase inhibition, 1 μM ATP; read-out: cMet Activity. The procedure, abridged:
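This plate-based kinase format uses immobilized phospholipase C-γ as substrate, phosphorylated by c-Met cytoplasmic domain (10 ng/mL) at 37° C for 15 minutes.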

T1 sequence (Q9UM73 19-1620): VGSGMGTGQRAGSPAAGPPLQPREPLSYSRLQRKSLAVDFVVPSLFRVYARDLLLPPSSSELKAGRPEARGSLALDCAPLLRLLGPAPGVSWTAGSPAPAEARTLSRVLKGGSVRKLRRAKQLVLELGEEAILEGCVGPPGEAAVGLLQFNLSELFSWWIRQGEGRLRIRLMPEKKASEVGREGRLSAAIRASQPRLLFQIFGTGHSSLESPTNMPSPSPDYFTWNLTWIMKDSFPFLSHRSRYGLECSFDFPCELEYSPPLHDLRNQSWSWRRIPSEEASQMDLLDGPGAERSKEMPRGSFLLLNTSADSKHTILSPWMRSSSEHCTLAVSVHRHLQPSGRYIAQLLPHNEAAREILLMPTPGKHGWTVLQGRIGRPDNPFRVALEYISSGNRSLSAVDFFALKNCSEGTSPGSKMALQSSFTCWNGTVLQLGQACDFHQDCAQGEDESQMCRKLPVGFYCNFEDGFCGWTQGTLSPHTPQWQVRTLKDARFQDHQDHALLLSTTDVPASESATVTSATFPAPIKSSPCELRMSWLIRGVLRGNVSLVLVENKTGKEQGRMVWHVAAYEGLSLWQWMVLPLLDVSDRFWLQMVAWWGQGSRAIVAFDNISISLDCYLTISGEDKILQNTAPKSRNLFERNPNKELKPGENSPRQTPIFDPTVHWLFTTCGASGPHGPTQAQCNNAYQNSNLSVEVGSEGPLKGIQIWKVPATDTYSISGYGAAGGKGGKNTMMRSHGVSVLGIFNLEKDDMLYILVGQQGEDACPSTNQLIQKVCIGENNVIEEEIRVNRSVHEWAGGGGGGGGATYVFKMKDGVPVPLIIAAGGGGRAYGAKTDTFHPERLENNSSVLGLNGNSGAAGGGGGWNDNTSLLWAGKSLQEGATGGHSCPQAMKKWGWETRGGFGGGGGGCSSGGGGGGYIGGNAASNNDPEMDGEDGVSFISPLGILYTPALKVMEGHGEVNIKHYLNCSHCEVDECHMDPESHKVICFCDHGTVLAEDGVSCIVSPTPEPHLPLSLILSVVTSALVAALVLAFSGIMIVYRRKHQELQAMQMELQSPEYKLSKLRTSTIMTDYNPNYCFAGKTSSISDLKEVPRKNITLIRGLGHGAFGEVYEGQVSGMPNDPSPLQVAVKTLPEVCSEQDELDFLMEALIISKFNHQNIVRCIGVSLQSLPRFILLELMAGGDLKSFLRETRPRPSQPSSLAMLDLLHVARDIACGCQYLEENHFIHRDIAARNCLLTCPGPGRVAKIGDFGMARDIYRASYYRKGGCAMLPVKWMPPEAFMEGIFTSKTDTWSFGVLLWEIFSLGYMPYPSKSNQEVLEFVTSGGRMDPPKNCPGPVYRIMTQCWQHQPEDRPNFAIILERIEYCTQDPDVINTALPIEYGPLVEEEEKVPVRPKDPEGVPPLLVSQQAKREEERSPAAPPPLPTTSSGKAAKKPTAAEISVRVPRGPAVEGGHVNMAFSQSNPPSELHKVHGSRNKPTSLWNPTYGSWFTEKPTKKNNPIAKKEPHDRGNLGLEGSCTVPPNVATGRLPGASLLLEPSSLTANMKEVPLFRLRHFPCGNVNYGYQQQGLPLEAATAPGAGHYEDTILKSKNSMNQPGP
T2 sequence (P08581 956-1390 limits assumed): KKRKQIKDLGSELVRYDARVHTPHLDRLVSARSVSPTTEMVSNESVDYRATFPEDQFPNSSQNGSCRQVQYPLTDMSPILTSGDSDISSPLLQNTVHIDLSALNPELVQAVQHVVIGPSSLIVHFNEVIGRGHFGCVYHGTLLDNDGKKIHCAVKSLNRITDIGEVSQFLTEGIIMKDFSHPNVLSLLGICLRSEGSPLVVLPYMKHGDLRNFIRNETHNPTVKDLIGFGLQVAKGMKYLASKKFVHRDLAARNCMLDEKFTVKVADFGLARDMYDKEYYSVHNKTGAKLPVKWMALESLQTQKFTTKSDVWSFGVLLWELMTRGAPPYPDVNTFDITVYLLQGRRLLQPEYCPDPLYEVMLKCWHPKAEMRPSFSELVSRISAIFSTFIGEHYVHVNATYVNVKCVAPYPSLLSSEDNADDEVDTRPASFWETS

On to `CCN1C(=O)CCC(C)(C)c2ccc(Nc3ncc(Cl)c(N[C@H]4[C@@H](C(N)=O)[C@@H]5C=C[C@H]4C5)n3)cc21` [Example 1586, (1S,2S,3R,4R)-3-[5-Chloro-2-(1-ethyl-5,5-dimethyl-2-oxo-2,3,4,5-tetrahydro-1H-benzo[b]azepin-8-ylamino)-pyrimidin-4-ylamino]-bicyclo[2.2.1]hept-5-ene-2-carboxylic acid amide], for which the IC50 in assay [1] and in assay [2] was < 100 nM throughout.

Regarding `CCN1C(=O)CCC(C)(C)c2ccc(Nc3ncc(Cl)c(Nc4ccc(N5CCOCC5)cc4OC)n3)cc21` [Example 1587, 8-[5-Chloro-4-(2-methoxy-4-morpholin-4-yl-phenylamino)-pyrimidin-2-ylamino]-1-ethyl-5,5-dimethyl-1,3,4,5-tetrahydro-benzo[b]azepin-2-one], the IC50 in assay [1] was < 100 nM; in assay [2], 1000 to 10000 nM.

As for `CCN1C(=O)CCC(C)(C)c2ccc(Nc3ncc(Cl)c(Nc4ccccc4C(=O)NC)n3)cc21` [Example 1589, 2-[5-Chloro-2-(1-ethyl-5,5-dimethyl-2-oxo-2,3,4,5-tetrahydro-1H-benzo[b]azepin-8-ylamino)-pyrimidin-4-ylamino]-N-methyl-benzamide], the IC50 in assay [1] and in assay [2] was < 100 nM in each case.

For the molecule `CC(C)N1C(=O)CCC(C)(C)c2ccc(Nc3ncc(Cl)c(N[C@H]4[C@@H](C(N)=O)[C@@H]5C=C[C@H]4C5)n3)cc21` [Example 1590, (1S,2S,3R,4R)-3-[5-Chloro-2-(1-isopropyl-5,5-dimethyl-2-oxo-2,3,4,5-tetrahydro-1H-benzo[b]azepin-8-ylamino)-pyrimidin-4-ylamino]-bicyclo[2.2.1]hept-5-ene-2-carboxylic acid amide], the IC50 in assay [1] was < 100 nM; in assay [2], 1000 to 10000 nM.

In the case of `COc1cc(N2CCOCC2)ccc1Nc1nc(Nc2ccc3c(c2)N(C(C)C)C(=O)CCC3(C)C)ncc1Cl` [Example 1591, 8-[5-Chloro-4-(2-methoxy-4-morpholin-4-yl-phenylamino)-pyrimidin-2-ylamino]-1-isopropyl-5,5-dimethyl-1,3,4,5-tetrahydro-benzo[b]azepin-2-one], the IC50 is < 100 nM in assay [1] and > 10000 nM in assay [2].

On to `CC(C)CN1C(=O)CCC(C)(C)c2ccc(Nc3ncc(Cl)c(N[C@H]4[C@@H](C(N)=O)[C@@H]5C=C[C@H]4C5)n3)cc21` [Example 1593, (1S,2S,3R,4R)-3-[5-Chloro-2-(1-isobutyl-5,5-dimethyl-2-oxo-2,3,4,5-tetrahydro-1H-benzo[b]azepin-8-ylamino)-pyrimidin-4-ylamino]-bicyclo[2.2.1]hept-5-ene-2-carboxylic acid amide], for which the IC50 in assay [1] was < 100 nM; in assay [2] it was 1000 to 10000 nM.

On to `COc1cc(N2CCOCC2)ccc1Nc1nc(Nc2ccc3c(c2)N(CC(C)C)C(=O)CCC3(C)C)ncc1Cl` [Example 1594, 8-[5-Chloro-4-(2-methoxy-4-morpholin-4-yl-phenylamino)-pyrimidin-2-ylamino]-1-isobutyl-5,5-dimethyl-1,3,4,5-tetrahydro-benzo[b]azepin-2-one], for which the IC50 is < 100 nM in assay [1] and > 10000 nM in assay [2].

For `CCN1C(=O)CCC(C)(C)c2ccc(Nc3ncc(Cl)c(Nc4ccccc4S(=O)(=O)N(C)C)n3)cc21` [Example 1595, 2-[5-Chloro-2-(1-ethyl-5,5-dimethyl-2-oxo-2,3,4,5-tetrahydro-1H-benzo[b]azepin-8-ylamino)-pyrimidin-4-ylamino]-N,N-dimethyl-benzenesulfonamide], the IC50 in assay [1] and in assay [2] was < 100 nM in each case.

Regarding `CNC(=O)c1cccc(F)c1Nc1nc(Nc2ccc3c(c2)N(C(C)=O)CCCC3(C)C)ncc1Cl` [Example 1596, 2-[2-(1-Acetyl-5,5-dimethyl-2,3,4,5-tetrahydro-1H-benzo[b]azepin-8-ylamino)-5-chloro-pyrimidin-4-ylamino]-3-fluoro-N-methyl-benzamide], the IC50 in assay [1] was 100 to 1000 nM; in assay [2], < 100 nM.

For the molecule `CCN1C(=O)CCC(C)(C)c2ccc(Nc3ncc(Cl)c(Nc4ccsc4C(=O)NC)n3)cc21` [Example 1597, 3-[5-Chloro-2-(1-ethyl-5,5-dimethyl-2-oxo-2,3,4,5-tetrahydro-1H-benzo[b]azepin-8-ylamino)-pyrimidin-4-ylamino]-thiophene-2-carboxylic acid methylamide], the IC50 in assay [1] and in assay [2] was 1000 to 10000 nM each time.

As for `COc1cc(N2CCOCC2)ccc1Nc1nc(Nc2ccc3c(c2)N(C(C)=O)CCCC3(C)C)ncc1Cl` [Example 1598, 1-{8-[5-Chloro-4-(2-methoxy-4-morpholin-4-yl-phenylamino)-pyrimidin-2-ylamino]-5,5-dimethyl-2,3,4,5-tetrahydro-benzo[b]azepin-1-yl}-ethanone], the IC50 in assay [1] lay in the range of 100 to 1000 nM; in assay [2], 1000 to 10000 nM.

In the case of `CNC(=O)c1cccc(F)c1Nc1nc(Nc2ccc3c(c2)N(CCOC)CCCC3(C)C)ncc1Cl` [Example 1599, 2-{5-Chloro-2-[1-(2-methoxy-ethyl)-5,5-dimethyl-2,3,4,5-tetrahydro-1H-benzo[b]azepin-8-ylamino]-pyrimidin-4-ylamino}-3-fluoro-N-methyl-benzamide], the IC50 in assay [1] and in assay [2] was < 100 nM each time.

Regarding `COCCN1CCCC(C)(C)c2ccc(Nc3ncc(Cl)c(N[C@H]4[C@@H](C(N)=O)[C@@H]5C=C[C@H]4C5)n3)cc21` [Example 1600, (1S,2S,3R,4R)-3-{5-Chloro-2-[1-(2-methoxy-ethyl)-5,5-dimethyl-2,3,4,5-tetrahydro-1H-benzo[b]azepin-8-ylamino]-pyrimidin-4-ylamino}-bicyclo[2.2.1]hept-5-ene-2-carboxylic acid amide], the IC50 was < 100 nM in assay [1] and 100 to 1000 nM in assay [2].

In the case of `COCCN1CCCC(C)(C)c2ccc(Nc3ncc(Cl)c(Nc4ccc(N5CCOCC5)cc4OC)n3)cc21` [Example 1601, 5-Chloro-N*2*-[1-(2-methoxy-ethyl)-5,5-dimethyl-2,3,4,5-tetrahydro-1H-benzo[b]azepin-8-yl]-N*4*-(2-methoxy-4-morpholin-4-yl-phenyl)-pyrimidine-2,4-diamine], the values for the IC50 in assay [1] and in assay [2] were 100 to 1000 nM and > 10000 nM, respectively.

As for `C#CCNC(=O)c1cccc(F)c1Nc1nc(Nc2ccc3c(c2)N(C(C)=O)CCCC3(C)C)ncc1Cl` [Example 1602, 2-[2-(1-Acetyl-5,5-dimethyl-2,3,4,5-tetrahydro-1H-benzo[b]azepin-8-ylamino)-5-chloro-pyrimidin-4-ylamino]-3-fluoro-N-prop-2-ynyl-benzamide], the IC50 in assay [1] is 100 to 1000 nM; in assay [2] it was < 100 nM.

With `CNC(=O)c1cccc(F)c1Nc1nc(Nc2ccc3c(c2)N(C(=O)CN2CCCC2)CCCC3(C)C)ncc1Cl` [Example 1603, 2-{5-Chloro-2-[5,5-dimethyl-1-(2-pyrrolidin-1-yl-acetyl)-2,3,4,5-tetrahydro-1H-benzo[b]azepin-8-ylamino]-pyrimidin-4-ylamino}-3-fluoro-N-methyl-benzamide], the IC50 in assay [1] and in assay [2] was 100 to 1000 nM in each case.

`C#CCNC(=O)c1cccc(F)c1Nc1nc(Nc2ccc3c(c2)N(C(=O)CN2CCCC2)CCCC3(C)C)ncc1Cl` [Example 1604, 2-{5-Chloro-2-[5,5-dimethyl-1-(2-pyrrolidin-1-yl-acetyl)-2,3,4,5-tetrahydro-1H-benzo[b]azepin-8-ylamino]-pyrimidin-4-ylamino}-3-fluoro-N-prop-2-ynyl-benzamide]: the IC50 in assay [1] and in assay [2] was 100 to 1000 nM in each case.
